Reference: patent US20230355597A1, “COMPOUNDS, COMPOSITIONS, AND METHODS FOR THE TREATMENT AND PREVENTION OF AVIAN PATHOGENIC E. COLI (APEC)” (OHIO STATE INNOVATION FOUNDATION, priority 2018, published 2023)
Marks after values point to notes of the source that are not given here.

Tests used:
[1] = tested on: Rif^r APEC O78; assay: In vivo screening of quorum sensing inhibitors in APEC infected broiler chickens
[2] = tested on: AI-2 activity of APEC O1; assay: AI-2 bioluminescence indicator assay (V. harveyi BB170); conditions: APEC O1, 100 µM
[3] = tested on: QS and virulence associated genes of APEC O78; assay: qRT-PCR of QS-regulated and virulence factors genes; format: cell-based, avian pathogenic Escherichia coli (APEC); conditions: 100 µM, 10 h
Description: Quantitative real-time reverse transcription PCR (qRT-PCR). […] APEC O78 was grown in the presence of 100 µM of each compound in a 96-well plate at 37° C. for 10 h. APEC O78 culture treated with 1 µL of 100% DMSO was used as […]. Total RNA was extracted from duplicate wells for each compound (200 µL) using a miRNeasy Mini Kit (Qiagen). RNA quality and quantity was determined by nanodrop 2000 C spectrophotometer (Thermo scientific). Traces of DNA was removed using Genomic DNA removal mix (Qiagen). Approximately, 5 µg of purified RNA was used to synthesize cDNA using the Qiagen RT^2 First Strand Kit (Qiagen). The qRT-PCR was performed using SensiMix™ SYBER® Hi-Rox qPCR Master Mix (Bioline) according to manufacturer instructions in a realplex^2 mastercycler (Eppendorf) with 55° C. annealing temperature. Gene-specific primers were designed using PrimerQuest Tool and obtained from integrated DNA technologies (IDT). The data were normalized to the house-keeping gene, glyceraldehyde-3-phosphate dehydrogenase (GAPDH). The relative fold change was calculated using the ΔΔCt method. Three independent experiments were conducted.

[4] = tested on: AI-2 activity of APEC O35; assay: AI-2 bioluminescence indicator assay (V. harveyi BB170); conditions: APEC O35, 100 µM
[5] = tested on: Rif^r APEC O78; assay: Wax moth (Galleria mellonella) larva infection model (AI-2 inhibitors); conditions: 48 h post treatment
[6] = tested on: AI-2 activity of APEC O15; assay: AI-2 bioluminescence indicator assay (V. harveyi BB170); conditions: APEC O15, 100 µM
[7] = tested on: AI-2 activity of APEC O115; assay: as above; conditions: APEC O115, 100 µM
[8] = tested on: AI-2 activity of APEC O2; assay: as above; conditions: APEC O2, 100 µM
[9] = tested on: AI-2 activity of APEC O78; assay: as above; conditions: APEC O78, 100 µM
[10] = tested on: AI-2 activity of APEC O18; assay: as above; conditions: APEC O18, 100 µM
[11] = tested on: AI-2 activity of APEC O109; assay: as above; conditions: APEC O109, 100 µM
[12] = tested on: AI-2 activity of APEC O8; assay: as above; conditions: APEC O8, 100 µM
[13] = tested on: APEC O2 in HD-11 cells; assay: Intracellular survival assay (AI-2 inhibitors); conditions: O2, HD-11, 100 µM, 6 h
[14] = tested on: intracellular APEC O78, O2, and O1 in infected Caco-2, HD11, and THP1 cells; assay: Intracellular survival assay (cidal SMs), summary over serotypes and cells; conditions: overall ranking
[15] = tested on: intracellular APEC O2 in Caco-2 cells; assay: Intracellular survival assay (cidal SMs); conditions: O2, Caco-2, 6 h treatment; superscript = multiple of MIC
[16] = tested on: APEC O18; format: cell-based, avian pathogenic Escherichia coli (APEC); conditions: APEC O18, M63 media; MIC/MBC
[17] = tested on: APEC O2; format: cell-based, avian pathogenic Escherichia coli (APEC); conditions: APEC O2, M63 media; MIC/MBC
[18] = tested on: intracellular APEC O2 in THP-1 cells; assay: Intracellular survival assay (cidal SMs); conditions: O2, THP-1, 6 h treatment; superscript = multiple of MIC
[19] = tested on: intracellular APEC O2 in HD11 cells; assay: Intracellular survival assay (cidal SMs); conditions: O2, HD11, 6 h treatment; superscript = multiple of MIC
[20] = tested on: APEC O109; format: cell-based, avian pathogenic Escherichia coli (APEC); conditions: APEC O109, M63 media; MIC/MBC
[21] = tested on: intracellular APEC O78 in THP-1 cells; assay: Intracellular survival assay (cidal SMs); conditions: O78, THP-1, 6 h treatment; superscript = multiple of MIC
[22] = tested on: APEC O78-53; format: cell-based, avian pathogenic Escherichia coli (APEC); conditions: APEC O78-53, M63 media; MIC/MBC
[23] = tested on: APEC O15; format: cell-based, avian pathogenic Escherichia coli (APEC); conditions: APEC O15, M63 media; MIC/MBC
[24] = tested on: APEC O78; assay: Loss of 260/280 nm absorbing materials assay; format: cell-based, avian pathogenic Escherichia coli (APEC); conditions: 2X MBC, 1 h, *P<0.05 vs DMSO
[25] = tested on: intracellular APEC O1 in HD11 cells; assay: Intracellular survival assay (cidal SMs); conditions: O1, HD11, 6 h treatment; superscript = multiple of MIC
[26] = tested on: biofilm embedded APEC O78; assay: MBEC High-throughput assay; format: cell-based, avian pathogenic Escherichia coli (APEC); conditions: biofilm embedded APEC O78; superscript = multiple of MIC (footnote)
Description: Effect against biofilm embedded APEC. The effect of cidal SMs against biofilm embedded APEC was determined using MBEC High-throughput (HTP) assay (Innovotech Inc., AB, Canada). Briefly, 150 µL of 0.05 OD600 adjusted APEC O78 culture was aliquoted into each well of the MBEC device containing polystyrene pegs and incubated at 37° C. for 36 h in LB media under stationary condition. […] The plate was incubated in the dark for 18 h at 37° C. with rotation at 110 rpm. The DMSO (1%) and M63 media were used as positive and negative controls, respectively. Following incubation, MIC of SMs in challenged plate was recorded. The SMs exposed pegs were then transferred to a new 96-well plate containing PBS and sonicated for 30 mins (Aquasonic ultrasonic cleaner, VWR) to disrupt the biofilm. […] Biofilm embedded APEC bacteria were enumerated and minimum biofilm eradication concentration (MBEC) of […] were determined. Two independent experiments were conducted.

[27] = tested on: APEC O78; assay: Confocal microscopy bacterial cytological profiling; format: cell-based, avian pathogenic Escherichia coli (APEC); conditions: 2X MBC
Description: Confocal and scanning electron microscopy. Confocal microscopy was used for bacterial cytological profiling (BCP) to identify the cellular pathways targeted by SMs as described previously. […] After incubation, treated cultures were centrifuged, washed, and resuspended in 100 μL PBS. […] Cultures were then centrifuged, washed, and resuspended in PBS to 1⁄10th volume of the original cultures.

[28] = tested on: APEC O1-63; format: cell-based, avian pathogenic Escherichia coli (APEC); conditions: APEC O1-63, M63 media; MIC/MBC
[29] = tested on: APEC O35; format: cell-based, avian pathogenic Escherichia coli (APEC); conditions: APEC O35, M63 media; MIC/MBC
[30] = tested on: intracellular APEC O78 in Caco-2 cells; assay: Intracellular survival assay (cidal SMs); conditions: O78, Caco-2, 6 h treatment; superscript = multiple of MIC
[31] = tested on: APEC O115; format: cell-based, avian pathogenic Escherichia coli (APEC); conditions: APEC O115, M63 media; MIC/MBC
[32] = tested on: APEC O8; format: cell-based, avian pathogenic Escherichia coli (APEC); conditions: APEC O8, M63 media; MIC/MBC
[33] = tested on: APEC O78; format: cell-based, avian pathogenic Escherichia coli (APEC); conditions: APEC O78, M63 media; cell prints MIC/MBC
[34] = tested on: APEC O2-211; format: cell-based, avian pathogenic Escherichia coli (APEC); conditions: APEC O2-211, M63 media; MIC/MBC
[35] = tested on: intracellular APEC O1 in Caco-2 cells; assay: Intracellular survival assay (cidal SMs); conditions: O1, Caco-2, 6 h treatment; superscript = multiple of MIC
[36] = tested on: intracellular APEC O78 in HD11 cells; assay: Intracellular survival assay (cidal SMs); conditions: O78, HD11, 6 h treatment; superscript = multiple of MIC
[37] = tested on: intracellular APEC O1 in THP-1 cells; assay: Intracellular survival assay (cidal SMs); conditions: O1, THP-1, 6 h treatment; superscript = multiple of MIC
[38] = tested on: APEC O1; format: cell-based, avian pathogenic Escherichia coli (APEC); conditions: APEC O1, M63 media; MIC/MBC

SMILES: Cc1ccc(CN2CCN(CCCc3ccccc3)CC2)cc1 [C5]
- reduction in chicken mortality ([1]; DMSO control mortality normalized to 100%): 100%
- average lesion score reduction ([1]; liver, heart, lung and airsac, vs DMSO): 2.1-2.3
- reduction of bacterial load in internal organs ([1]; liver, lung, heart, and kidney, vs DMSO control, 'up to'): 5.2-6.1 log CFU/g
- Mortality rate (%) ([1]; oral gavage once a day, day 4 to day 8, DMSO control 66.7%): 0%
- Reduction in APEC lesions severity, Air-sacs (%) ([1]; vs DMSO treated control): 93.3%
- Reduction in APEC lesions severity, Heart (%) ([1]; vs DMSO treated control): 87.5%
- Reduction in APEC lesions severity, Liver (%) ([1]; vs DMSO treated control): 81.8%
- Reduction in APEC lesions severity, Lung (%) ([1]; vs DMSO treated control): 88.9%
- effect on body weight gain ([1]; vs non-treated and non-infected control group): increased BWG
- Inhibition % of AI-2 activity [2]: 46%
- expression of fliP [3]: down-regulated
- expression of fpr [3]: down-regulated
- Inhibition % of AI-2 activity [4]: 68%
- larval death [5]: no larval death
- Inhibition % of AI-2 activity [6]: 45%
- Inhibition % of AI-2 activity [7]: 63%
- Inhibition % of AI-2 activity [8]: 89%
- Inhibition % of AI-2 activity [9]: 83%
- Inhibition % of AI-2 activity [10]: 61%
- Inhibition % of AI-2 activity [11]: 69%
- Inhibition % of AI-2 activity [12]: 18%
- clearance of intracellular APEC [13]: 100%
- reduction of intracellular survival ([13]; vs DMSO): 3.3 logs

SMILES: CC1CCC(C(C)C)C(OC(=O)Cn2c[n+](CC(=O)OC3CC(C)CCC3C(C)C)c3ccccc32)C1.[Cl-] (stereo not shown) [SM4]
- effectiveness in clearing intracellular APEC serotypes in all tested cells [14]: most effective
- SMs intracellular APEC clearance concentration [15]: 100^c µM
- MBC [16]: 50 µM
- MIC [16]: 25 µM
- MBC [17]: 50 µM
- MIC [17]: 25 µM
- SMs intracellular APEC clearance concentration [18]: 100^c µM
- SMs intracellular APEC clearance concentration [19]: 50^b µM
- MBC [20]: 25 µM
- MIC [20]: 25 µM
- SMs intracellular APEC clearance concentration [21]: 56^b µM
- MBC [22]: 50 µM
- MIC [22]: 25 µM
- MBC [23]: 25 µM
- MIC [23]: 25 µM
- Absorbance 260 ([24]; 260 nm absorbing material in supernatant): 3.91*
- Absorbance 280 ([24]; 280 nm absorbing material in supernatant): 2.69*
- SMs intracellular APEC clearance concentration [25]: 50^b µM
- MBEC [26]: 25^a µM
- cytological profile (confocal, FM4-64 / SYTO-9) [27]: membrane disruptors
- MBC [28]: 50 µM
- MIC [28]: 25 µM
- MBC [29]: 25 µM
- MIC [29]: 25 µM
- SMs intracellular APEC clearance concentration [30]: 50^b µM
- MBC [31]: 25 µM
- MIC [31]: 25 µM
- MBC [32]: 25 µM
- MIC [32]: 25 µM
- MBC [33]: 50 µM
- MIC [33]: 25 µM
- MBC [34]: 25 µM
- MIC [34]: 25 µM
- SMs intracellular APEC clearance concentration [35]: 100^c µM
- SMs intracellular APEC clearance concentration [36]: 50^b µM
- SMs intracellular APEC clearance concentration [37]: >100 µM
- MBC [38]: 50 µM
- MIC [38]: 25 µM
